Laboratory results reported in patent US20180282323A1, “Mesoionic imidazole derivatives as insecticides” (BAYER CROPSCIENCE AKTIENGESELLSCHAFT, priority 2015, published 2018).
Where two headings read alike, the source gives them in different places.

Legend:
[1] = log P by HPLC on reversed-phase column (EEC directive 79/831 Annex V.A8); format: physicochemical; conditions: for log p a): HPLC on reversed-phase column; for log p: HPLC on reversed-phase column (footnote a)
In short: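 Determined per EEC directive 79/831 Annex V.A8 by HPLC on a reversed-phase C18 column at 43° C.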

Diabrotica balteata = Diabrotica balteata spray test; format: in vivo; conditions: application rate 160 μg/well, wheat grains with beetle larvae, after 7 days
Method: Diabrotica balteata—Spray Test Solvent: 78 parts by weight of acetone • • 1.5 parts by weight of dimethylformamide Emulsifier: alkylaryl polyglycol ether
(§1) To produce a suitable active ingredient formulation, 1 part by weight of active ingredient is dissolved with the stated parts by weight of solvent and made up with water containing an emulsifier concentration of 1000 ppm until the desired concentration is attained. To produce further test concentrations, the formulation is diluted with emulsifier-containing water.
Pre-swollen wheat grains (Triticum aestivum) are incubated in a multiwell plate filled with agar and a little water for one day (5 seed grains per cavity). The germinated wheat grains are sprayed with an active ingredient formulation of the desired concentration. Subsequently, each cavity is infected with 10-20 beetle larvae of Diabrotica balteata.
After 7 days, the efficacy in % is determined. 100% means that all wheat plants have grown as in the untreated, uninfected control; 0% means that no wheat plant has grown.

Myzus persicae [2] = experiment: Myzus persicae oral test; format: in vivo; conditions: application rate 20 ppm, oral uptake through parafilm, after 5 days; for pest or weed control at 20 ppm: Myzus persicae, 120 h, read-out: efficacy
In short: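 Compound dissolved in acetone, diluted with water, then mixed into IPL41 insect medium with sugar in microtitre plates under parafilm. Mixed-population green peach aphids fed through the membrane; % mortality scored after 5 days (100% = all killed).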

Myzus persicae [3] = experiment: Myzus persicae spray test (Chinese cabbage leaf discs); format: in vivo; conditions: application rate 500 g/ha, after 6 days
Method: Myzus persicae—Spray Test Solvent: 78 parts by weight of acetone • • 1.5 parts by weight of dimethylformamide Emulsifier: alkylaryl polyglycol ether
as §1
Discs of Chinese cabbage leaves (Brassica pekinensis) infested by all stages of the green peach aphid (Myzus persicae) are sprayed with an active ingredient formulation of the desired concentration.
After 6 days, the efficacy in % is determined. 100% means that all the aphids have been killed; 0% means that no aphids have been killed.

| log p a) [1] | Structure (SMILES) | efficacy (Diabrotica balteata) [%] | efficacy (Myzus persicae [2]) [%] | log p [1] | efficacy (Myzus persicae [3]) [%] | chromatographic logP [1] | chromatographic logP ([1]; pH 2.7) | pest or weed control at 20 ppm (Myzus persicae [2]) [%] |
| --- | --- | --- | --- | --- | --- | --- | --- | --- |
| 3.21 | Cc1cccc(NC(=O)c2c([O-])n(Cc3cnc(Cl)s3)c3cccc[n+]23)c1 [Example I-1-235] | 100 | 90 |  |  |  |  |  |
|  | O=C(NCc1ccccc1)c1c([O-])n(Cc2cnc(Cl)s2)c2cccc[n+]12 [Example I-1-148] | 100 | 100 | 2.41 |  |  |  |  |
|  | CCCNC(=O)c1c([O-])n(Cc2cnc(Cl)s2)c2cccc[n+]12 [Example I-1-129] | 100 | 100 | 1.98 |  |  |  |  |
| 3.76 | O=C(Nc1cccc(C(F)(F)F)c1)c1c([O-])n(Cc2cnc(Cl)s2)c2cccc[n+]12 [Example I-1-233] | 80 |  |  |  |  |  |  |
| 3.87 | O=C(Nc1cccc(OC(F)(F)F)c1)c1c([O-])n(Cc2cnc(Cl)s2)c2cccc[n+]12 [Example I-1-230] | 100 |  |  |  |  |  |  |
| 3.13 | O=C(Nc1ccc(F)cc1F)c1c([O-])n(Cc2cnc(Cl)s2)c2cccc[n+]12 [Example I-1-232] | 100 | 90 |  |  |  |  |  |
| 4.06 | Cc1ccc[n+]2c(C(=O)Nc3cccc(C(F)(F)F)c3)c([O-])n(Cc3cnc(Cl)s3)c12 [Example I-1-216] | 100 | 100 |  |  |  |  |  |
|  | O=C(NC1CCC1)c1c([O-])n(Cc2cnc(Cl)s2)c2cccc[n+]12 [Example I-1-135] | 80 | 90 | 2.11 |  |  |  |  |
|  | O=C(Cn1cc(Cl)cn1)c1c([O-])n(Cc2cnc(Cl)s2)c2cccc[n+]12 [Example I-1-010] |  | 100 | 2.09 | 90 |  |  |  |
| 2.14 | O=C(Nc1c(Cl)ccnc1Cl)c1c([O-])n(Cc2cnc(Cl)s2)c2cccc[n+]12 [Example I-1-305] |  | 100 |  | 90 |  |  |  |
|  | Cc1ccc[n+]2c(C(=O)CCl)c([O-])n(Cc3cnc(Cl)s3)c12 [Example I-1-081] |  | 100 | 1.98 | 100 |  |  |  |
|  | COC(=O)c1c([O-])n(Cc2ccc(Cl)nc2)c2cccc[n+]12 [Example I-1-101] |  | 100 | 1.18 | 90 |  |  |  |
|  | CC(=O)c1c([O-])n(Cc2cnc(Cl)s2)c2cccc[n+]12 [Example I-1-043, 3-Acetyl-1-[(2-chloro-1,3-thiazol-5-yl)methyl]-1H-imidazo[1,2-a]pyridin-4-ium-2-olate] |  |  |  | 100 | 1.29 | 1.29 | 100 |
|  | COC(=O)c1c([O-])n(Cc2cncnc2)c2cccc[n+]12 [Example I-1-107] |  | 100 | 0.42 | 90 |  |  |  |
| 1.78 | Cc1ccc[n+]2c(C(=O)Nc3ncccc3F)c([O-])n(Cc3cnc(Cl)s3)c12 [Example I-1-274] |  | 100 |  | 90 |  |  |  |
|  | CCOCC(=O)c1c([O-])n(Cc2cncnc2)c2cccc[n+]12 [Example I-1-072] |  | 100 | 0.59 | 100 |  |  |  |
| 2.43 | N#Cc1cccc(Cl)c1NC(=O)c1c([O-])n(Cc2cnc(Cl)s2)c2cccc[n+]12 [Example I-1-319] |  | 100 |  | 90 |  |  |  |
|  | Cc1ccn(CC(=O)c2c([O-])n(Cc3cnc(Cl)s3)c3c(C)ccc[n+]23)n1 [Example I-1-092] |  | 100 | 1.84 | 90 |  |  |  |
|  | CCOCC(=O)c1c([O-])n(Cc2cnc(Cl)s2)c2ccc(F)c[n+]12 [Example I-1-112] |  | 100 | 1.58 | 90 |  |  |  |
|  | N#Cc1cnn(CC(=O)c2c([O-])n(Cc3cnc(Cl)s3)c3cccc[n+]23)c1 [Example I-1-015] |  | 100 | 1.68 | 90 |  |  |  |

| log p a) [1] | Structure (SMILES) | efficacy (Diabrotica balteata) [%] | efficacy (Myzus persicae [2]) [%] | log p [1] | efficacy (Myzus persicae [3]) [%] | chromatographic logP [1] | chromatographic logP ([1]; pH 2.7) | pest or weed control at 20 ppm (Myzus persicae [2]) [%] |
| --- | --- | --- | --- | --- | --- | --- | --- | --- |
|  | CC(=O)Nc1ccn(CC(=O)c2c([O-])n(Cc3cnc(Cl)s3)c3cccc[n+]23)n1 [Example I-1-056] |  | 90 | 1.21 | 90 |  |  |  |
| 3.07 | Cc1ccc[n+]2c(C(=O)Nc3c(F)cccc3F)c([O-])n(Cc3cnc(Cl)s3)c12 [Example I-1-291] | 80 |  |  |  |  |  |  |
| 2.4 | O=C(Nc1cccnc1Cl)c1c([O-])n(Cc2cnc(Cl)s2)c2cccc[n+]12 [Example I-1-308] |  | 100 |  | 90 |  |  |  |
|  | CC(C)OCC(=O)c1c([O-])n(Cc2cnc(Cl)s2)c2cccc[n+]12 [Example I-1-026, 1-[(2-chloro-1,3-thiazol-5-yl)methyl]-3-(isopropoxyacetyl)-1H-imidazo[1,2-a]pyridin-4-ium-2-olate] |  |  |  | 100 | 1.73 | 1.8 | 100 |
| 1.75 | N#Cc1cccnc1NC(=O)c1c([O-])n(Cc2cnc(Cl)s2)c2cccc[n+]12 [Example I-1-310] |  | 100 |  | 90 |  |  |  |
| 2.03 | Cc1ccnc(Cl)c1NC(=O)c1c([O-])n(Cc2cnc(Cl)s2)c2cccc[n+]12 [Example I-1-309] |  | 100 |  | 100 |  |  |  |
| 2.2 | Cc1ccc[n+]2c(C(=O)NC3CC3)c([O-])n(C(C)c3cnc(Cl)s3)c12 (stereo not shown) [Example I-1-290] | 100 |  |  |  |  |  |  |
| 2.76 | CCC(CC)OCC(=O)c1c([O-])n(Cc2cnc(Cl)s2)c2c(C)ccc[n+]12 [Example I-1-293] |  | 100 |  | 100 |  |  |  |
|  | O=C(Cn1nccn1)c1c([O-])n(Cc2cnc(Cl)s2)c2cccc[n+]12 [Example I-1-068] |  | 100 | 1.41 | 100 |  |  |  |
| 3.46 | Cc1ccc[n+]2c(C(=O)NC(C)c3ccc(Cl)cc3)c([O-])n(Cc3cnc(Cl)s3)c12 (stereo not shown) [Example I-1-210] |  | 100 |  | 100 |  |  |  |
|  | O=C(Cn1cccn1)c1c([O-])n(Cc2ccc(Cl)nc2)c2ccc(F)c[n+]12 [Example I-1-106] |  | 90 | 1.53 | 90 |  |  |  |
|  | COC(=O)c1c([O-])n(Cc2cnc(Cl)s2)c2cccc(C)[n+]12 [Example I-1-122] |  | 100 | 1.32 | 90 |  |  |  |
|  | CNC(=O)c1c([O-])n(Cc2cnc(Cl)s2)c2cccc[n+]12 [Example I-1-128] | 100 |  | 1.31 |  |  |  |  |
| 2.34 | Cc1ccc[n+]2c(C(=O)COCC(F)(F)F)c([O-])n(Cc3cnc(Cl)s3)c12 [Example I-1-297] |  | 100 |  | 90 |  |  |  |
| 3.72 | CC(c1ccc(Cl)nc1)n1c([O-])c(C(=O)Nc2cccc(C(F)(F)F)c2)[n+]2ccccc12 (stereo not shown) [Example I-1-238] | 80 |  |  |  |  |  |  |
| 2.12 | Cc1ccc[n+]2c(C(=O)COC(C)(C)C)c([O-])n(Cc3cnc(Cl)s3)c12 [Example I-1-296] |  | 100 |  | 90 |  |  |  |
|  | CCCOCC(=O)c1c([O-])n(Cc2cncnc2)c2cccc[n+]12 [Example I-1-061] |  | 100 | 1.08 | 100 |  |  |  |
|  | Cn1nccc1OCC(=O)c1c([O-])n(Cc2cnc(Cl)s2)c2cccc[n+]12 [Example I-1-086] |  | 100 | 1.53 | 100 |  |  |  |
|  | CCC(=O)N(CC)CC(=O)c1c([O-])n(Cc2ccc(Cl)nc2)c2cccc[n+]12 [Example I-1-070] |  | 100 | 1.64 | 100 |  |  |  |

| Structure (SMILES) | log p a) [1] | efficacy (Diabrotica balteata) [%] | efficacy (Myzus persicae [2]) [%] | log p [1] | efficacy (Myzus persicae [3]) [%] | chromatographic logP [1] | chromatographic logP ([1]; pH 2.7) | pest or weed control at 20 ppm (Myzus persicae [2]) [%] |
| --- | --- | --- | --- | --- | --- | --- | --- | --- |
| CCCNC(=O)c1c([O-])n(C(C)c2ccc(Cl)nc2)c2c(C)ccc[n+]12 (racemic) [Example I-1-258] | 2.23 | 80 |  |  |  |  |  |  |
| O=C(Nc1ncccc1Cl)c1c([O-])n(Cc2ccc(Cl)nc2)c2cccc[n+]12 [Example I-1-315] | 1.46 |  | 100 |  | 100 |  |  |  |
| Cn1nccc1NC(=O)c1c([O-])n(Cc2ccc(Cl)nc2)c2cccc[n+]12 [Example I-1-325] | 1.49 |  | 100 |  | 90 |  |  |  |
| Cc1ccccc1NC(=O)c1c([O-])n(Cc2ccc(Cl)nc2)c2cccc[n+]12 [Example I-1-328] | 2.73 |  | 100 |  | 90 |  |  |  |
| O=C(Nc1c(F)cccc1F)c1c([O-])n(Cc2ccc(Cl)nc2)c2cccc[n+]12 [Example I-1-313] | 2.27 |  | 100 |  | 90 |  |  |  |
